Like-named read-outs stand apart in the source and are kept apart here.
How the values were obtained:
Assay type in all cases: in vivo
[1] = tested on: Sorghum vulgare (grain sorghum, SORVU); test: Greenhouse postemergence trial SORVU; conditions: Compound A 10 g/ha
Experimental: (§1) Seeds of the desired test plant species were planted in a 90:10% v/v (volume/volume) mixture of PRO-MIX® BX (Premier Tech Horticulture, Quakertown, PA, USA) and PROFILE® GREENS GRADE™ (Profile Products LLC, Buffalo Grove, IL, USA) planting mixture, which typically has a pH of 5.2 to 6.2 and an organic matter content of at least 50 percent, in plastic pots with a surface area of 103.2 square centimeters (cm^2). […] The plants were grown for 7-36 days (d) in a greenhouse with an approximate 14-hour (h) photo-period which was maintained at about 23° C. during the day and 22° C. during the night. Nutrients and water were added on a regular basis and supplemental lighting was provided with overhead metal halide 1000-Watt lamps as necessary. The plants were employed for testing when they reached the second or third true leaf stage.
(§2) Emulsifiable concentrates of each of each pyridine carboxylate herbicide (Compound A or Compound B) were prepared at 100 grams acid equivalent per liter (g ae/L). The emulsifiable concentrates also included a safener, cloquintocet-mexyl, at 120 grams active ingredient per liter (g ai/L), unless otherwise noted below. An aliquot of each emulsifiable concentrate was placed in a 25 mL glass vial and diluted with an aqueous mixture of 1.25% (v/v) ACTIROB® B esterified rapeseed oil (Bayer Crop Science, Research Triangle Park, NC, USA) or MSO® Concentrate with LECI-TECH® methylated soybean oil (Loveland Products, Loveland, CO, USA) to obtain concentrated stock solutions at the highest application rate for each herbicide, based upon a 12 milliliter (mL) application volume at a rate of 187 liters per hectare (L/ha). The concentrated stock solutions were further diluted with an aqueous mixture of 1.25% v/v ACTIROB® B or MSO® Concentrate with LECI-TECH® to obtain stock solutions at reduced application rates for each herbicide. Spray solutions of the herbicide combinations (Compound A or Compound B plus synthetic auxin herbicide or auxin transport inhibitor) were prepared by adding weighed amounts or aliquots of the synthetic auxin herbicide or auxin transport inhibitor to the stock solutions of Compound A or Compound B to form 12-mL spray solutions in two-way combinations. […]
(§3) The treated plants and control plants were placed in a greenhouse as described above and watered by sub-irrigation to prevent wash-off of the test compounds. After 20-22 d, the condition of the test plants as compared with that of the control plants was determined visually and scored on a scale of 0 to 100 percent where 0 corresponds to no injury and 100 corresponds to complete kill.

[2] = tested on: Abutilon theophrasti (velvetleaf, ABUTH); test: Greenhouse postemergence trial ABUTH; conditions: Compound A 10 g/ha
Experimental: as §1
(§4) Emulsifiable concentrates of each of each pyridine carboxylate herbicide (Compound A or Compound B) were prepared at 100 grams acid equivalent per liter (g ae/L). The emulsifiable concentrates also included a safener, cloquintocet-mexyl, at 120 grams active ingredient per liter (g ai/L), unless otherwise noted below. An aliquot of each emulsifiable concentrate was placed in a 25 mL glass vial and diluted with an aqueous mixture of 1.25% (v/v) ACTIROB® B esterified rapeseed oil (Bayer Crop Science, Research Triangle Park, NC, USA) or MSO® Concentrate with LECI-TECH® methylated soybean oil (Loveland Products, Loveland, CO, USA) to obtain concentrated stock solutions at the highest application rate for each herbicide, based upon a 12 milliliter (mL) application volume at a rate of 187 liters per hectare (L/ha). The concentrated stock solutions were further diluted with an aqueous mixture of 1.25% v/v ACTIROB® B or MSO® Concentrate with LECI-TECH® to obtain stock solutions at reduced application rates for each herbicide. Spray solutions of the herbicide combinations (Compound A or Compound B plus synthetic auxin herbicide or auxin transport inhibitor) were prepared by adding weighed amounts or aliquots of the synthetic auxin herbicide or auxin transport inhibitor to the stock solutions of Compound A or Compound B to form 12-mL spray solutions in two-way combinations.
(§5) The spray solutions were applied to the plant material with an overhead Mandel track sprayer equipped with 8002E nozzles calibrated to deliver 187 L/ha over an application area of 0.503 square meters (m^2) at a spray height of 18 inches (43 centimeters (cm)) above the average plant canopy. Control plants were sprayed in the same manner with the solvent blank. All pyridine carboxylate herbicide (component a) application rates are given as “g ae/ha” and all synthetic auxin herbicide or auxin transport inhibitor (component b) application rates are given as “g ai/ha.”
as §3

[3] = tested on: Leptochloa chinensis (Chinese sprangletop, LEFCH); test: Greenhouse postemergence trial LEFCH; conditions: Compound A 10 g/ha
Experimental: as §1, §2, §3

[4] = tested on: Rumex obtusifolius (broad-leaf dock, RUMOB); test: Greenhouse postemergence trial RUMOB; conditions: Compound A 10 g/ha
[5] = tested on: Viola arvensis (field violet, VIOAR); test: Greenhouse postemergence trial VIOAR; conditions: for % visual injury Obs: alone; for % visual injury, Obs: applied alone; for % visual injury: c1-3 Compound A 7.5/10/15
Experimental: as §1, §4, §5, §3

[6] = tested on: Avena fatua (wild oat, AVEFA); test: Greenhouse postemergence trial AVEFA; conditions: Compound A 10 g/ha
Experimental: as §1, §2, §3

[7] = tested on: Lolium multiflorum (Italian ryegrass, LOLMU); test: Greenhouse postemergence trial LOLMU; conditions: Compound A 10 g/ha
Experimental: as §1, §4, §5, §3

[8] = tested on: Triticum aestivum (winter wheat, TRZAW); test: Greenhouse postemergence crop phytotoxicity TRZAW; conditions: for % visual injury Obs / visual injury, Obs / % visual injury, Obs: TRZAW; for % visual injury, Obs: applied alone; for % visual injury (crop phytotoxicity): c1-3 Compound A 7.5/10/15
[9] = tested on: Papaver rhoeas (corn poppy, PAPRH); test: Greenhouse postemergence trial PAPRH; conditions: PAPRH; for % visual injury Obs: alone; for % visual injury, Obs: applied alone
[10] = tested on: Anthemis arvensis (field chamomile, ANTAR); test: Greenhouse postemergence trial ANTAR; conditions: ANTAR; for % visual injury Obs: alone; for % visual injury, Obs: applied alone
Experimental: as §1, §4, §5, §3

[11] = tested on: Hordeum vulgare (winter barley, HORVW); test: Greenhouse postemergence crop phytotoxicity HORVW; conditions: for % visual injury Obs / visual injury, Obs / % visual injury, Obs: HORVW; for % visual injury, Obs: applied alone; for % visual injury (crop phytotoxicity): c1-3 Compound A 7.5/10/15
Experimental: as §1, §4, §5, §3

[12] = tested on: Matricaria discoidea (pineapple weed, MATMT); test: Greenhouse postemergence trial MATMT; conditions: MATMT; for % visual injury Obs: alone; for % visual injury, Obs: applied alone
[13] = tested on: Brassica napus (winter rape, BRSNW); test: Greenhouse postemergence trial BRSNW; conditions: for plant injury at 10 g/ha / plant injury at 15 g/ha: Brassica napus, post-emergence
[14] = tested on: Hordeum vulgare (spring barley, HORVS)
Experimental: as §1, §4, §5, §3

[15] = c4-5 Fluroxypyr-MHE 100/140, c6-8, c9-11 A 7.5/10/15 + Fluroxypyr-MHE 100, 140 g/ha
[16] = c4-6 Clopyralid 30/60/120, c7-9, c10-12, c13-15 A 7.5/10/15 + Clopyralid 30, 60, 120 g/ha
[17] = c4 Aminopyralid 5, c5-7 A 7.5/10/15 + Aminopyralid 5 g/ha
[18] = c4 Halauxifen-methyl 6, c5-7 A 7.5/10/15 + Halauxifen-methyl 6 g/ha
[19] = Hordeum vulgare (spring barley, HORVS), in vivo

N#CCOC(=O)c1nc(-c2ccc3cc[nH]c3c2F)c(F)c(N)c1Cl [Compound A, cyanomethyl 4-amino-3-chloro-5-fluoro-6-(7-fluoro-1H-indol-6-yl)pyridine-2-carboxylate]
SORVU Obs (% visual injury) ([1]; without safener): 0%
% visual injury, Obs ([1]; SORVU): 0%
% visual injury, Obs ([2]; ABUTH): 75%
ABUTH Obs (% visual injury) [2]: 78%
ABUTH Obs (% visual injury) ([2]; without safener): 75%
LEFCH Obs (% visual injury) ([3]; without safener): 0%
% visual injury, Obs ([3]; LEFCH): 0%
RUMOB Obs (% visual injury) [4]: 10%
RUMOB Obs (% visual injury) ([4]; without safener): 35%
% visual injury, Obs ([4]; RUMOB): 35%
visual injury, Obs ([5]; VIOAR, Compound A 10 g/ha alone): 10%
visual injury, Obs ([5]; VIOAR, Compound A 15 g/ha alone): 15%
% visual injury Obs ([5]; VIOAR, 10 g/ha): 10%
% visual injury Obs ([5]; VIOAR, 15 g/ha): 15%
% visual injury, Obs ([5]; VIOAR, 10 g/ha): 10%
% visual injury, Obs ([5]; VIOAR, 15 g/ha): 15%
pest or weed control at […] ([5]; Viola arvensis, post-emergence, VIOAR, Compound A 7.5 g/ha, read-out: % visual injury Obs): 10%
pest or weed control at 10 g/ha ([5]; Viola arvensis, post-emergence, VIOAR, Compound A 10 g/ha, read-out: % visual injury Obs): 10%
pest or weed control at 15 g/ha ([5]; Viola arvensis, post-emergence, VIOAR, Compound A 15 g/ha, read-out: % visual injury Obs): 15%
% visual injury [5, 15]: 5%
% visual injury [5, 16]: 5%
% visual injury [5, 17]: 5%
% visual injury [5, 18]: 5%
% visual injury, Obs ([6]; AVEFA): 0%
AVEFA Obs (% visual injury) ([6]; without safener): 0%
LOLMU Obs (% visual injury) [7]: 0%
LOLMU Obs (% visual injury) ([7]; without safener): 0%
% visual injury, Obs ([7]; LOLMU): 0%
% visual injury Obs ([8]; Compound A 10 g/ha): 0%
visual injury, Obs ([8]; Compound A 10 g/ha alone): 0%
% visual injury Obs ([8]; Compound A 15 g/ha): 0%
visual injury, Obs ([8]; Compound A 15 g/ha alone): 0%
% visual injury Obs ([8]; alone, 10 g/ha): 0%
% visual injury Obs ([8]; alone, 15 g/ha): 0%
% visual injury, Obs ([8]; 10 g/ha): 0%
% visual injury, Obs ([8]; 15 g/ha): 0%
% visual injury (crop phytotoxicity) [8, 15]: 0%
% visual injury (crop phytotoxicity) [8, 16]: 0%
% visual injury (crop phytotoxicity) [8, 17]: 0%
% visual injury (crop phytotoxicity) [8, 18]: 0%
visual injury, Obs ([9]; Compound A 10 g/ha alone): 100%
visual injury, Obs ([9]; Compound A 15 g/ha alone): 100%
% visual injury Obs ([9]; 10 g/ha): 100%
% visual injury Obs ([9]; 15 g/ha): 100%
% visual injury, Obs ([9]; 10 g/ha): 100%
% visual injury, Obs ([9]; 15 g/ha): 100%
pest or weed control at […] ([9]; Papaver rhoeas, post-emergence, Compound A 7.5 g/ha, read-out: % visual injury Obs): 100%
pest or weed control at 10 g/ha ([9]; Papaver rhoeas, post-emergence, Compound A 10 g/ha, read-out: % visual injury Obs): 100%
pest or weed control at 15 g/ha ([9]; Papaver rhoeas, post-emergence, Compound A 15 g/ha, read-out: % visual injury Obs): 100%
visual injury, Obs ([10]; Compound A 10 g/ha alone): 100%
visual injury, Obs ([10]; Compound A 15 g/ha alone): 100%
% visual injury Obs ([10]; 10 g/ha): 100%
% visual injury Obs ([10]; 15 g/ha): 100%
% visual injury, Obs ([10]; 10 g/ha): 100%
% visual injury, Obs ([10]; 15 g/ha): 100%
pest or weed control at […] ([10]; Anthemis arvensis, post-emergence, Compound A 7.5 g/ha, read-out: % visual injury Obs): 95%
pest or weed control at 10 g/ha ([10]; Anthemis arvensis, post-emergence, Compound A 10 g/ha, read-out: % visual injury Obs): 100%
pest or weed control at 15 g/ha ([10]; Anthemis arvensis, post-emergence, Compound A 15 g/ha, read-out: % visual injury Obs): 100%
% visual injury Obs ([11]; Compound A 10 g/ha): 0%
visual injury, Obs ([11]; Compound A 10 g/ha alone): 0%
% visual injury Obs ([11]; Compound A 15 g/ha): 0%
visual injury, Obs ([11]; Compound A 15 g/ha alone): 0%
% visual injury Obs ([11]; alone, 10 g/ha): 0%
% visual injury Obs ([11]; alone, 15 g/ha): 0%
% visual injury, Obs ([11]; 10 g/ha): 0%
% visual injury, Obs ([11]; 15 g/ha): 0%
% visual injury (crop phytotoxicity) [11, 15]: 0%
% visual injury (crop phytotoxicity) [11, 16]: 0%
% visual injury (crop phytotoxicity) [11, 17]: 0%
% visual injury (crop phytotoxicity) [11, 18]: 0%
visual injury, Obs ([12]; Compound A 10 g/ha alone): 5%
visual injury, Obs ([12]; Compound A 15 g/ha alone): 15%
% visual injury Obs ([12]; 10 g/ha): 5%
% visual injury Obs ([12]; 15 g/ha): 15%
% visual injury, Obs ([12]; 10 g/ha): 5%
% visual injury, Obs ([12]; 15 g/ha): 15%
pest or weed control at […] ([12]; Matricaria discoidea, post-emergence, Compound A 7.5 g/ha, read-out: % visual injury Obs): 5%
pest or weed control at 10 g/ha ([12]; Matricaria discoidea, post-emergence, Compound A 10 g/ha, read-out: % visual injury Obs): 5%
pest or weed control at 15 g/ha ([12]; Matricaria discoidea, post-emergence, Compound A 15 g/ha, read-out: % visual injury Obs): 15%
visual injury, Obs ([13]; BRSNW, Compound A 10 g/ha alone): 65%
visual injury, Obs ([13]; BRSNW, Compound A 15 g/ha alone): 80%
% visual injury (Obs) ([13]; BRSNW, alone 10 g/ha): 68%
plant injury at 10 g/ha ([13]; BRSNW, Compound A 10 g/ha, read-out: % visual injury Obs): 65%
plant injury at 10 g/ha ([13]; BRSNW, Compound A 10 g/ha, read-out: % visual injury, Obs): 68%
plant injury at 15 g/ha ([13]; BRSNW, Compound A 15 g/ha, read-out: % visual injury Obs): 80%
plant injury at 10 g/ha ([13]; BRSNW, alone, 10 g/ha, read-out: % visual injury Obs): 65%
plant injury at 15 g/ha ([13]; BRSNW, alone, 15 g/ha, read-out: % visual injury Obs): 80%
plant injury at 15 g/ha ([13]; BRSNW, applied alone, 15 g/ha, read-out: % visual injury, Obs): 80%
BRSNW Obs (% visual injury) ([13]; Compound A 10 g/ha, without safener): 65%
HORVS Obs (% visual injury) ([14]; Compound A 10 g/ha): 0%
HORVS % visual injury Obs ([14]; Compound A 10 g/ha (Table 42)): 0%
HORVS % visual injury Obs ([14]; Compound A 10 g/ha (Table 43)): 0%
HORVS % visual injury Obs ([14]; Compound A 10 g/ha (Table 44)): 0%
% visual injury Obs ([14]; HORVS, Compound A 10 g/ha): 0%
% visual injury, Obs ([14]; HORVS, Compound A 10 g/ha): 0%
visual injury, Obs ([14]; HORVS, Compound A 10 g/ha alone): 0%
% visual injury Obs ([14]; HORVS, Compound A 15 g/ha): 0%
visual injury, Obs ([14]; HORVS, Compound A 15 g/ha alone): 0%
% visual injury (Obs) ([14]; HORVS, alone 10 g/ha): 0%
% visual injury Obs ([14]; HORVS, alone 10 g/ha): 0%
% visual injury Obs ([14]; HORVS, alone, 15 g/ha): 0%
% visual injury, Obs ([14]; HORVS, applied alone, 10 g/ha): 0%
% visual injury, Obs ([14]; HORVS, applied alone, 15 g/ha): 0%
% visual injury (crop phytotoxicity) [14, 19]: 0%
% visual injury, Obs (crop phytotoxicity) [14, 19]: 0%
% visual injury (crop phytotoxicity) ([14]; c1-2 Compound A 7.5/10, c3 Quinclorac 140, c4-5 A 7.5/10 + Quinclorac 140 g/ha): 0%
% visual injury (crop phytotoxicity) ([14]; c1-3 Compound A 7.5/10/15, c4-5 Fluroxypyr-MHE 100/140, c6-8, c9-11 A 7.5/10/15 + Fluroxypyr-MHE 100, 140 g/ha): 0%
% visual injury (crop phytotoxicity) ([14]; c1-3 Compound A 7.5/10/15, c4 Aminopyralid 5, c5-7 A 7.5/10/15 + Aminopyralid 5 g/ha): 0%
% visual injury (crop phytotoxicity) ([14]; c1-3 Compound A 7.5/10/15, c4 Halauxifen-methyl 6, c5-7 A 7.5/10/15 + Halauxifen-methyl 6 g/ha): 0%

From US12568967B2, “Compositions comprising pyridine carboxylate herbicides with synthetic auxin herbicides or auxin transport inhibitors” (priority 2018, dated 2026)
